Literature values in patent US11007171B2, “Treatment and prevention of joint disorders” (Summit Innovation Labs, LLC, priority 2017, dated 2021).
Values belong to the compound of their own block, whether it stands above or below them.

Tests used:
[1] = system: high fat diet-induced obese mice; settings: compared with controls
[2] = compared with vitamin E
[3] = system: Porphyromonas gingivalis, Prevotella gingivalis, and Actinobacillus actinomycetemcomitans; settings: periodontopathic microorganisms
[4] = system: human gingival cells
[5] = system: NMDAR; parameters: key: ↓: Downregulate Inducers of arthritis
[6] = system: experimental osteoarthritis; settings: intraarticular magnesium sulfate (MgSO4)
[7] = system: NF-κB; parameters: key: ↓: Downregulate Inducers of arthritis
[8] = after 4 weeks, 500 mg/day
[9] = system: AP1; parameters: key: ↓: Downregulate Inducers of arthritis
[10] = system: Human Articular Cartilage and Chondrosarcoma Cells
[11] = system: FGF; parameters: key: ↓: Downregulate Inducers of arthritis
[12] = system: mice fed high fat diet; settings: oral
[13] = system: pigs with the equivalent of human metabolic syndrome
[14] = system: acute antigen-induced arthritis model
[15] = system: osteoarthritis chondrocytes
[16] = system: HIF-2α; parameters: key: ↓: Downregulate Inducers of arthritis
[17] = system: rheumatoid arthritis synovial fibroblast (RASF)
[18] = system: RA; settings: by suppressing IL-1β, TNF-α, NF-κB, COX2 and PGE2, MMPs, and arthritis index through induction of SIRT1
[19] = system: Bax; parameters: key: ↓: Downregulate Inducers of arthritis
[20] = system: OA cartilage of animal model and IL-1β treated human chondrocytes; settings: resveratrol injection
[21] = system: male C57BL/6J mice; settings: 0.4% (w/w), 4-8 week-old male C57BL/6J mice
[22] = system: advanced glycation end products stimulated chondrocytes
[23] = target: mTOR (Homo sapiens, UniProt P42345); parameters: key: ↓: Downregulate Inducers of arthritis
[24] = system: C57BL/6 mice; settings: local intra-articular injection
[25] = system: OA animal model
[26] = system: cartilage; settings: by inhibiting iNOS expression
[27] = system: rats fed a high cholesterol diet
[28] = system: rabbit articular chondrocytes; settings: rabbit articular chondrocytes in vitro
[29] = system: P38 MAPK; parameters: key: ↓: Downregulate Inducers of arthritis
[30] = system: OA chondrocytes
[31] = system: RASF
[32] = system: human bone marrow-derived mesenchymal stem cells (hBMSCs); settings: especially at a concentration of 5 μM
[33] = system: 23 fungi strains including Candida species; settings: fairly low concentration
[34] = system: chondrocytes
[35] = system: Candida species
[36] = system: rat adjuvant arthritis
[37] = system: Collagen induced rheumatoid arthritis; settings: quercetin supplementation
[38] = system: mice
[39] = doses of a few grams a day in either humans or animals
[40] = system: Human Chondrocytes Treated with Hydrogen Peroxide or Growth-Related Oncogene a
[41] = system: Runx2; parameters: key: ↓: Downregulate Inducers of arthritis
[42] = system: VEGF; parameters: key: ↓: Downregulate Inducers of arthritis
[43] = in vivo
[44] = system: type 2 diabetic rats

Compound: C=CCc1ccc(O)c(-c2ccc(O)c(CC=C)c2)c1 [honokiol]
- glucose tolerance [1]: improved
- plasma total cholesterol and glucose levels [1]: significantly reduced
- antioxidant activity, potency relative to vitamin E [2]: 1000 times
- antimicrobial activity [3]: significant antimicrobial activity
- cytotoxic effect on human gingival cells [4]: relatively low cytotoxic effect

Compound: Magnesium
- Downregulate NMDAR [5]: ↓
- cartilage degradation and chondrocyte apoptosis [6]: Reduced cartilage degradation and chondrocyte apoptosis deposition by blocking
- Downregulate NF-κB [7]: ↓

Compound: glucosyl-hesperidin [G-Hesperidin]
- triglyceride level [8]: marked decrease

- Downregulate mTOR [23]: ↓
Compound: Oc1ccc(/C=C/c2cc(O)cc(O)c2)cc1 [Resveratrol, 3,5,4′-trihydroxy-trans-stilbene]
- Downregulate AP1 [9]: ↓
- FGF and IL-1β induced chondrocytes apoptosis, expression of cartilage degrading proteases (MMPs and aggrecanases) and decrease in proteoglycan biosynthesis [10]: Significantly reduced fibroblast growth factor (FGF) and IL-1β induced chondrocytes
- Downregulate FGF [11]: ↓
- OA severity [12]: Significantly reduced
- chondrocyte apoptosis [12]: inhibited
- collagen type II expression [12]: increased
- type II collagen and proteoglycan degradation [12]: prevented
- body mass indices, serum cholesterol and C-reactive protein [13]: lowered
- glucose tolerance and endothelial function [13]: improved
- knee swelling, histological score of synovial tissue, proliferating cell nuclear antigen (anti-PCNA), and proteins expressed by circulating microphages (CD 68, CD3) [14]: Resveratrol significantly reduced knee swelling, histological score of synovial tissue,
- chondrocyte apoptosis [15]: Reduced chondrocyte apoptosis mediated by (a) an inhibition of proapoptotic protein
- Downregulate HIF-2α [16]: ↓
- apoptosis of rheumatoid arthritis synovial fibroblast (RASF) [17]: Resveratrol induced apoptosis of rheumatoid arthritis synovial fibroblast (RASF)
- RA development and progression [18]: Resveratrol inhibited RA development and progression by suppressing inflammation
- Downregulate Bax [19]: ↓
- expression of collagen type II [20]: maintained
- expression of iNOS and MMP-13 [20]: reduced
- aerobic capacity [21]: significantly increased
- AGEs induced degradation of collagen type II [22]: production of NO and PGE2, prevented AGEs induced degradation of collagen type
- AGEs induced expression and activity of MMP-13 [22]: II, and decreased AGEs induced expression and activity of MMP-13 by down
- Downregulate NF-κB [7]: ↓
- AC degradation [24]: delayed
- OA symptoms [24]: reduced
- matrix synthesis [24]: increased

Compound: Oc1cc(O)c2c(c1)O[C@H](c1ccc(O)c(O)c1)[C@@H](O)[C@@H]2c1c(O)cc(O)c2c1O[C@H](c1ccc(O)c(O)c1)[C@@H](O)C2 [procyanidin B3]
- OA progression [25]: Pcy and components of Pcy (procyanidin B2 and B3) slowed OA progression,
- cartilage degradation and heterotopic ossification [26]: Pcy B3 prevents cartilage degradation and heterotopic ossification (bone formation in

Compound: COc1ccc([C@@H]2CC(=O)c3c(O)cc(O[C@@H]4O[C@H](CO[C@@H]5O[C@@H](C)[C@H](O)[C@@H](O)[C@H]5O)[C@@H](O)[C@H](O)[C@H]4O)cc3O2)cc1O [hesperidin, hesperitin-7-O-rutinoside]
- inhibition of liver cholesterol biosynthesis [27]: 28.3%
- inhibition of the esterification of hepatic cholesterol [27]: 23.7%

Compound: epigallocatechin-3-gallate [EGCG]
- Downregulate AP1 [9]: ↓
- chondrocyte proliferation, production of collagen type II and aggrecan [28]: Enhanced chondrocyte proliferation, production of collagen type II and aggrecan.
- Downregulate P38 MAPK [29]: ↓
- AGEs induced expression of TNF-α and MMP-13 [30]: Significantly decreased AGEs induced expression of TNF-α and MMP-13 in OA
- Downregulate NF-κB [7]: ↓
- IL-1β-induced IL-6 and IL-8 synthesis [31]: Inhibited IL-1β-induced IL-6 and IL-8 synthesis in RASF via suppressing
- osteogenic effect on hBMSCs [32]: strong stimulatory effect

Compound: COc1cc(/C=C/C(=O)CC(=O)/C=C/c2ccc(O)c(OC)c2)ccc1O [Curcumin, (1E,6E)-1,7-Bis(4-hydroxy-3-methoxyphenyl)-1,6-heptadiene-3,5-dione]
- antifungal activity [33]: potent antifungal activity
- Downregulate P38 MAPK [29]: ↓
- IL-1β induced chondrocytes apoptosis [34]: Inhibited IL-1β induced chondrocytes apoptosis, by suppressing caspase-3
- adhesion of Candida species to human buccal epithelial cells [35]: inhibitory effect
- Downregulate NF-κB [7]: ↓

Compound: (−)-epicatechin-(4β→8)-(−)-epicatechin [procyanidin B2]
- OA progression [25]: Pcy and components of Pcy (procyanidin B2 and B3) slowed OA progression,

Compound: O=c1c(O)c(-c2ccc(O)c(O)c2)oc2cc(O)cc(O)c12 [Quercetin, 3,5,7,3′,4′-pentahydroxyflavone]
- NF-κB activity, IL-1β, CRP, monocyte chemotactic protein-1 [36]: Quercetin supplementation significantly reduced NF-κB activity, IL-1β, CRP,
- plasma antioxidant activity [36]: monocyte chemotactic protein-1, and increased plasma antioxidant activity [Gardi C,
- progression of RA (arthritis score and paw swelling), elastase activity, oxidative stress and NO expression [37]: Quercetin supplementation (a) reduced progression of RA as indicated by a reduction
- expression of genes associated with mitochondrial biogenesis (PGC-1a and SIRT1), mitochondrial DNA content, and cytochrome-C concentration ([38]; 7 days, 12.5 or 25 mg/kg b.w., muscle and brain, mice): increases
- maximal endurance capacity (time to fatigue) and voluntary wheel-running activity ([38]; treadmill running test, compared with placebo-treated mice): significantly increased
- Downregulate NF-κB [7]: ↓
- side effects [39]: no side effects

Compound: OCCc1ccc(O)c(O)c1 [Hydroxytyrosol, 4-(2-Hydroxyethyl)-1,2-benzenediol]
- level of SIRT1 mRNA ([40]; in the presence of GROα): HT treatment significantly increased the level of SIRT1 mRNA in the presence of
- chondrocytes apoptosis, DNA damage ([40]; pretreatment of chondrocytes, oxidative stress or GROα): Pretreatment of chondrocytes with HT (a) prevented chondrocytes apoptosis, DNA
- Downregulate Runx2 [41]: ↓
- Downregulate VEGF [42]: ↓

Compound: C=CCc1ccc(O)c(-c2cc(CC=C)ccc2O)c1 [magnolol, 4-Allyl-2-(5-allyl-2-hydroxy-phenyl)phenol]
- glucose tolerance [1]: improved
- plasma total cholesterol and glucose levels [1]: significantly reduced
- antioxidant activity, potency relative to vitamin E [2]: 1000 times
- antimicrobial activity [3]: significant antimicrobial activity
- oral bioavailability [43]: 4-5%
- cytotoxic effect on human gingival cells [4]: relatively low cytotoxic effect
- fasting blood glucose and plasma insulin levels [44]: reduced
